The record followed here is PubChem BioAssay (NCI).

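96-well plates; 48 h exposure; 5 concentrations. Endpoints by linear interpolation between flanking doses. Not reached: highest tested concentration assigned. TGI is the concentration that stops growth completely.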

Holding throughout (test): NCI tumour cell line growth inhibition, 48 h
Test [1] concerns COLO 205 colon.
The test system of test [2] is HT29 colon.
For test [3], the system named is EKVX NSCLC.
In test [4] the test system is HOP-92 NSCLC.
Test [5] deals with OVCAR-4 ovarian.
Test [6] relates to 786-0 renal.
The test system of test [7] is UO-31 renal.
Test [8] relates to CAKI-1 renal.
The subject of test [9] is SF-268 CNS.
Test [10] concerns A498 renal.
Test [11] relates to IGROV1 ovarian.
The subject of test [12] is NCI-H226 lung.
The subject of test [13] is DU-145 prostate.

With `Cc1ccc2nc(N)[nH]c(=O)c2c1Sc1ccncc1`, the TGI in [1], in test [2], in [3], in test [4], in [5] and in test [6] was > 100 µM in each case. For the same compound, the TGI in test [7], in [8], in test [9], in test [10] and in test [11] was > 100 µM throughout.
With `Nc1cn(C2OC(CC(c3ccccc3)(c3ccccc3)c3ccccc3)C(O)C2O)c(=O)[nH]c1=O` (stereo not drawn), the TGI in test [1] was 30.3 µM; in [2], 58.8 µM; in test [3], > 100 µM; in test [4], 39 µM; in test [12], > 100 µM; in test [6], 59.1 µM. For the same compound, the TGI is > 100 µM in test [7]; 57.1 µM in [8]; > 100 µM in test [9]; 95.5 µM in [10]; 70.7 µM in test [11].
Consider `CC(=O)Nc1ccc(-c2nnc(SCC(=O)Nc3cccc(C)c3)o2)cc1`, for which the TGI worked out at 28 µM in test [1]; 25.4 µM in test [2]; 26.2 µM in test [4]; 30.8 µM in test [12]; 29.8 µM in test [5]; 26.4 µM in test [6]. The TGI in [7] is 26.3 µM; in test [8], 30.4 µM; in [9], > 100 µM; in test [11], 24.7 µM.
Turning to `O=C1NC(=O)C(C(=O)C(=O)Nc2cc(Cl)ccc2Cl)C(=O)N1`, the TGI in test [1], in [3], in test [4], in test [5], in test [6] and in [7] was > 100 µM each time. In addition, the TGI in test [9], in test [10] and in [11] was > 100 µM in each case.
Take `CC(C)OP(=O)(OC(C)C)C(=NCCO)NNc1ccc([N+](=O)[O-])cc1`: the TGI in test [1], in test [3], in [4], in [12], in test [5] and in [6] was > 100 µM each time. The TGI in [7], in test [8], in test [9] and in [10] was > 100 µM in each case.
As to `O=c1oc2cc(O)ccc2c2[nH]c3cc(O)ccc3c12`, the TGI is 74.9 µM in test [1]; > 100 µM in [2]; 90.1 µM in test [3]; 95.4 µM in test [4]; 78 µM in test [12]; 99.6 µM in test [5]. In addition, the TGI in test [6] was > 100 µM; in test [7] it was 97.5 µM; in test [9], 64.8 µM; in [10], > 100 µM; in [11], 57.9 µM.
Take `C[N+]1=C(c2cccnc2/C=N/O)OCC1(C)C`: the TGI in test [1], in test [2], in [3], in [4], in test [12] and in [5] was > 100 µM throughout. Moreover, the TGI in [6], in test [7], in [8], in test [9], in test [10] and in test [11] was > 100 µM in each case.
Regarding `CC(NC(=O)Cc1ccc(OP(=O)(OCc2ccc([N+](=O)[O-])o2)N(C)CCCCCl)cc1)c1ccc(OCC2CCCCC2)c(C(N)=O)c1` (stereo not drawn), the TGI was found to be 3.1 µM in test [1]; 3.18 µM in test [2]; 7.09 µM in test [12]; 6.31 µM in test [5]; 10.8 µM in test [6]; 8.45 µM in [7]. In addition, the TGI in [13] turned out to be 14.4 µM; in test [8] it was 20.7 µM; in test [9] it was 6.27 µM; in test [10], 7.39 µM; in test [11], 4.76 µM.
In the case of `CCOC(=O)/C=C/n1c2ccccc2c(=O)c2cc(OC)ccc21`, the TGI in test [1], in test [2], in test [3], in test [4], in test [12] and in test [5] was > 100 µM each time. The TGI in test [6], in [7], in [8], in [9], in [10] and in test [11] was > 100 µM throughout.
Take `O=Cc1c2c(cc3c1CC1(C3)Cc3cc4c(c(C=O)c3C1)CCCC4)CCCC2`: the TGI in test [1], in test [2], in test [3], in test [4], in [12] and in [5] was > 31.6 µM each time. Besides, the TGI was > 31.6 µM in [6]; > 100 µM in test [13]; > 100 µM in test [8]; > 100 µM in test [9]; > 31.6 µM in test [11].
With `[N-]=[N+]=CC(=O)C1(C(=O)C=[N+]=[N-])CC1`, the TGI in test [1], in [2], in test [3], in test [12], in test [5] and in [6] was > 100 µM each time. The TGI in test [7], in test [9], in test [10] and in [11] was > 100 µM in each case.
Take `Cc1ccc(S(=O)(=O)NC(=O)C2S(=O)(=O)OCCOS2(=O)=O)cc1`: the TGI in [1], in test [2], in test [3], in [4], in [12] and in test [5] was > 100 µM throughout. For the same compound, the TGI in test [6], in test [7], in [8] and in test [9] was > 100 µM in each case.
As to `CCOC(=O)NN(C(=O)OCC)c1ccc(N=Nc2ccc(OC)cc2)n1C`, the TGI in test [1] was 41.3 µM; in test [2], 58.3 µM; in test [3], > 100 µM; in test [4], 78.5 µM; in test [12], 97.2 µM; in test [5] it was > 100 µM. Further, the TGI in [6] worked out at 97.9 µM; in test [7], 71 µM; in [10] it was 56.1 µM; in test [11], 87.2 µM.
